Tests used:
Progesterone receptor [1] = biological target: T1, Progesterone receptor (Homo sapiens, UniProt P06401); assay type: functional
T1 sequence (P06401 whole entry): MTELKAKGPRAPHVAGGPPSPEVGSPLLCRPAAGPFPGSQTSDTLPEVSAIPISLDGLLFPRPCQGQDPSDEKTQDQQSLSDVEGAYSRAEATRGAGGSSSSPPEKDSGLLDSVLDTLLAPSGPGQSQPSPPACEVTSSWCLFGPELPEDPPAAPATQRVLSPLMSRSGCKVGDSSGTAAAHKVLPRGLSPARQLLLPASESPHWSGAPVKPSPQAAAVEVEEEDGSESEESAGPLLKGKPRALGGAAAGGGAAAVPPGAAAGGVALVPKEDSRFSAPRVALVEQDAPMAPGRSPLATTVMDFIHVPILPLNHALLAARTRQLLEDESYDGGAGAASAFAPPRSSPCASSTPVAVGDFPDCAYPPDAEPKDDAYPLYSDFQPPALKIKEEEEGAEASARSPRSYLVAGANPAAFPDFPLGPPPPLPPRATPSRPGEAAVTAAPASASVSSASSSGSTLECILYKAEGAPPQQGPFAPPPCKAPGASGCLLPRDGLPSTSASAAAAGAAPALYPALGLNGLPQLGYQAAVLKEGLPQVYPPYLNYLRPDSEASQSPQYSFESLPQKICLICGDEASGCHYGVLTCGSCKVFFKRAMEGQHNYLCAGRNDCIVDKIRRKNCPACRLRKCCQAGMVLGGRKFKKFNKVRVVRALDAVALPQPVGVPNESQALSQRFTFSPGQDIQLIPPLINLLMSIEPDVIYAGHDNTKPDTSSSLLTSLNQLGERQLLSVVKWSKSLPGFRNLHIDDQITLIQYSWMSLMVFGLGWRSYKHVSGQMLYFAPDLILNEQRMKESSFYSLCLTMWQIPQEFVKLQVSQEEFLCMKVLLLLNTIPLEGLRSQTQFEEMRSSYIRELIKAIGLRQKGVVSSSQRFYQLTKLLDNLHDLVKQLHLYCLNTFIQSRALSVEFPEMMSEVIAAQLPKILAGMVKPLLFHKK

Progesterone receptor [2] = biological target: T1, Progesterone receptor; assay type: functional; remark: listed apart in the source
[3] = biological target: Prostaglandin G/H synthase 1 (Homo sapiens, UniProt P23219); assay type: functional
[4] = biological target: T2, Alpha-2A adrenergic receptor (Homo sapiens, UniProt P08913)
T2 sequence (P08913 whole entry): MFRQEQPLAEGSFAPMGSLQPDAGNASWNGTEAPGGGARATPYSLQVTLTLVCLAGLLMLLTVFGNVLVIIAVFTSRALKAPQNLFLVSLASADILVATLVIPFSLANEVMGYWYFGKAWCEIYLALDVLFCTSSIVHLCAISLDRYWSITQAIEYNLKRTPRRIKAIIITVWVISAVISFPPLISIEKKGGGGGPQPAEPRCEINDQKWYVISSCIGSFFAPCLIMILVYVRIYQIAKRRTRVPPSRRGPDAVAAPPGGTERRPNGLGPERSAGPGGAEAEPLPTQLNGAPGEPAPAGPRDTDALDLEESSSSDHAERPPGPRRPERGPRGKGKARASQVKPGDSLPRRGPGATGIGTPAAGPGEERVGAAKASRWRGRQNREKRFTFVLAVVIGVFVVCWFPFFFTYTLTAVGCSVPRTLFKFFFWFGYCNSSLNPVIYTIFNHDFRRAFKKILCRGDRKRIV

Thromboxane A2 receptor = biological target: T3, Thromboxane A2 receptor (Homo sapiens, UniProt P21731); assay type: functional, cell-based
T3 sequence (P21731 whole entry): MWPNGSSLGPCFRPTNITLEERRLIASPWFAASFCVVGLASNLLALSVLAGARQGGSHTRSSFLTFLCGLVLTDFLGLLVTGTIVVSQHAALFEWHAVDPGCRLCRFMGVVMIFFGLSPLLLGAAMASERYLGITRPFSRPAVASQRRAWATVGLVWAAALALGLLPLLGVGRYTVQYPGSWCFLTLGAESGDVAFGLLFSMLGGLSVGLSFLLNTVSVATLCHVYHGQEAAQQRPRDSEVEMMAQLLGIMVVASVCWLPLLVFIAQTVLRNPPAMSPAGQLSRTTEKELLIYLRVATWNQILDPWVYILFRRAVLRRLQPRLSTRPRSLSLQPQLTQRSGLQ

Measured: AC50
Also: assay procedure not described here.

Chain of Prostaglandin G/H synthase 1 (P23219 whole entry): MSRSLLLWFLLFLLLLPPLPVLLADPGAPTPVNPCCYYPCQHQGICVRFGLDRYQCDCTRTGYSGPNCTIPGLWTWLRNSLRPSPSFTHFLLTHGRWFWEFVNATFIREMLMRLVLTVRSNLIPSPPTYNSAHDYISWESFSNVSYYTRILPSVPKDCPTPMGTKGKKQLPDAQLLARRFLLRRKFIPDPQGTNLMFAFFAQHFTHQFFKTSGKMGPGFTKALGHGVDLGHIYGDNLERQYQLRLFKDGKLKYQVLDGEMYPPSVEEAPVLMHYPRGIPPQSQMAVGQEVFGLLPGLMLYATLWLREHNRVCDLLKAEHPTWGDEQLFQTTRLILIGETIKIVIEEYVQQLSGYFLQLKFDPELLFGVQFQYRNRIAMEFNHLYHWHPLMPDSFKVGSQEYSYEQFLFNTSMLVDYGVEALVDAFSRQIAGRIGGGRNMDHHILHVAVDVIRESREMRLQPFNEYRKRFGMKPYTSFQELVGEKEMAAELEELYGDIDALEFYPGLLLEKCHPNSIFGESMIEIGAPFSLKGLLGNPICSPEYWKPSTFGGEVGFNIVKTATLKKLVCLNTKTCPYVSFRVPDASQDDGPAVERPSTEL

CC[C@@H]([C@H](C)O)n1ncn(-c2ccc(N3CCN(c4ccc(OC[C@@H]5CO[C@@](Cn6cncn6)(c6ccc(F)cc6F)C5)cc4)CC3)cc2)c1=O [POSACONAZOLE]
> 30 µM: Progesterone receptor [1] | Progesterone receptor [2] | [3] | [4] | Thromboxane A2 receptor
